The values below come from publication PMC2818674 (Bioorganic & medicinal chemistry, 2009).

The nature of one data set: Plasma stability assay. In kind it is in vitro ADME, rat. Conditions: for remaining at 1 h, 1 μM: rat, fresh rat plasma; for plasma stability: after 1 h of incubation in rat plasma.
The next data set is described as follows: PAMPA permeability assay. Conditions: pH 7.4. In kind it is in vitro ADME.
For another data set, the system named is Akt. Put plainly: Selectivity profile: Akt. In kind it is biochemical. Conditions: for IC50: read-out: Akt, IC50, selectivity profile.

For orientation: fraction remaining means the share of the starting amount still present when the sample was taken. Higher therefore signals greater stability. As a reminder, the IC50 is the concentration at which inhibition is half-maximal.

In turn, `O=[N+]([O-])c1cnc(Sc2nnc(O)n2-c2ccc3c(c2)OCCO3)s1` [BI-78D3, reference compound] returned a fraction remaining at 1 h, 1 μM in the data set “Plasma stability assay” of 42%. Moreover, the “Cell permeability, PAMPA % Flux” value in “PAMPA permeability assay” is given as 30%.

Take `CCCNc1nnc(Sc2ncc([N+](=O)[O-])s2)s1` [BI-90H6, 5-(5-nitrothiazol-2-ylthio)-N-propyl-1,3,4-thiadiazol-2-amine]: in “Plasma stability assay”, the “plasma stability” value is “degraded rapidly” and the amount remaining at 1 h, 1 μM amounted to 35%. In the data set with Akt, the IC50 was over 100 µM. For the same compound, the “Cell permeability, PAMPA % Flux” value in “PAMPA permeability assay” worked out at 49.8%.

`COCCNc1nnc(Sc2ncc([N+](=O)[O-])s2)s1` [BI-90H9, N-(2-methoxyethyl)-5-(5-nitrothiazol-2-ylthio)-1,3,4-thiadiazol-2-amine] showed a share remaining at 1 h, 1 μM in the data set “Plasma stability assay” of 68%. For the same compound, in the data set with Akt, the “activity against the kinase Akt” value is “practically inactive” and the IC50 is over 100 µM. Also, the “Cell permeability, PAMPA % Flux” value in the data set “PAMPA permeability assay” is on record as 76.3%.

As for `COc1ccc(CCNc2nnc(Sc3ncc([N+](=O)[O-])s3)s2)cc1OC` [BI-90H10, N-(3,4-dimethoxyphenethyl)-5-(5-nitrothiazol-2-ylthio)-1,3,4-thiadiazol-2-amine], in the data set “Plasma stability assay”, the “plasma stability” value is “degraded rapidly” and the fraction remaining at 1 h, 1 μM was determined as 0%. Also, the IC50 in the data set on Akt is over 100 µM. Besides, in “PAMPA permeability assay”, the “Cell permeability, PAMPA % Flux” value is given as 5.5%.

As to `CCC(C)Nc1nnc(Sc2ncc([N+](=O)[O-])s2)s1` (stereo not drawn) [BI-98A10, N-sec-butyl-5-(5-nitrothiazol-2-ylthio)-1,3,4-thiadiazol-2-amine], the IC50 with Akt was over 100 µM.
